Results reported in patent publication US7998965B2, “Glutamate aggrecanase inhibitors” (Wyeth LLC, priority 2005, dated 2011).

How the values were obtained:
[1] = molecular target: T1, purified recombinant human Aggrecanase-2 (Ag2t-Phe628-Strep) (Homo sapiens, UniProt Q9UNA0); experiment: In vitro fluorescence screen for Aggrecanase-2 inhibitors; type: biochemical; conditions: Table 2; read-out: Agg 2 IC50
T1 construct: the form used is denoted as Ag2t-Phe628-Strep (MW=41,737)
T1 sequence (Q9UNA0 262-628): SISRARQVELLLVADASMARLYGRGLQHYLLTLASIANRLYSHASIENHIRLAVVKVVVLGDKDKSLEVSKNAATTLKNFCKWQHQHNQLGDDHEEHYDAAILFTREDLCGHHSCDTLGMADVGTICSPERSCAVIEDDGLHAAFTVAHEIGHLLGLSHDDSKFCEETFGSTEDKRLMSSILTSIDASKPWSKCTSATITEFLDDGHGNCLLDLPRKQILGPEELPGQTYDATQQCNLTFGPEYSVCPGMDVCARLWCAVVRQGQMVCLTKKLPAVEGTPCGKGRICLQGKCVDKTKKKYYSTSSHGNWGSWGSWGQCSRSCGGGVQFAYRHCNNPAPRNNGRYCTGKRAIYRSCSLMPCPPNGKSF

[2] = molecular target: T2, purified recombinant human Aggrecanase-1 (rAgg1) (Homo sapiens, UniProt O75173); experiment: In vitro fluorescence screen for Aggrecanase-1 inhibitors; type: biochemical; conditions: Table 2; read-out: Agg1 IC50
T2 sequence (O75173 213-837): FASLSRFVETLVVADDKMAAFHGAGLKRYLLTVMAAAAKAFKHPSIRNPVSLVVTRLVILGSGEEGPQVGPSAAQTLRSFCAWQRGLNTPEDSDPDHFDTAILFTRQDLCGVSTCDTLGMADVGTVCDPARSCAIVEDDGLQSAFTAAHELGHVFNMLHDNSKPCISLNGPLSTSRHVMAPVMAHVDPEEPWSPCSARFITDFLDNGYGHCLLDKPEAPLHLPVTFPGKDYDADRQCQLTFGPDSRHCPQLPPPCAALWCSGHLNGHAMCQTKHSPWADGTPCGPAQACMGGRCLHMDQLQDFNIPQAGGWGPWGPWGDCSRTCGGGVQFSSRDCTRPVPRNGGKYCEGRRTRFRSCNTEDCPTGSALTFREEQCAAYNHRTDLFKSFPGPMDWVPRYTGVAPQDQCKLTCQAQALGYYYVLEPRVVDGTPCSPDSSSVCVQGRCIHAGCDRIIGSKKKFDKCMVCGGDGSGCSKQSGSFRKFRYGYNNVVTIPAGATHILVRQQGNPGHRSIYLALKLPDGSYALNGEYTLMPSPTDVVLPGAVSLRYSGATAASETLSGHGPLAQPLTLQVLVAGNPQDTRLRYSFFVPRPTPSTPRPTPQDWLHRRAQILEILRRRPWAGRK

SMILES | IC50 [1] [nM] | IC50 [2] [nM]
CC(C)(Cc1ccccc1)NC(=O)[C@H](CCC(=O)O)NC(=O)c1ccc(-c2ccc(CO)cc2)cc1 [Example 17SS, N-(1,1-dimethyl-2-phenylethyl)-N^2-{[4′-(hydroxymethyl)biphenyl-4-yl]carbonyl}-L-α-glutamine] | 3960 | 450
CC(C)c1ccc(-c2ccc(C(=O)N[C@@H](CCC(=O)O)C(=O)NC(C)(C)Cc3ccccc3)cc2)cc1 [Example 17T, N-(1,1-dimethyl-2-phenylethyl)-N^2-[(4′-isopropylbiphenyl-4-yl)carbonyl]-L-α-glutamine] | 7200 | 3200
Cc1ccc(-c2ccc(C(=O)N[C@@H](CCC(=O)O)C(=O)NC(C)(C)Cc3ccccc3)cc2)cc1 [Example 17TT, N-(1,1-dimethyl-2-phenylethyl)-N^2-[(4′-methylbiphenyl-4-yl)carbonyl]-L-α-glutamine] | 173 | 120
CC(C)(Cc1ccccc1)NC(=O)[C@H](CCC(=O)O)NC(=O)c1ccc(-c2ccc(-c3ccccc3)cc2)cc1 [Example 17U, N-(1,1-dimethyl-2-phenylethyl)-N^2-(1,1′:4′,1″-terphenyl-4-ylcarbonyl)-L-α-glutamine] | ~6700 | 1800
CC(C)(Cc1ccc(F)cc1)NC(=O)[C@H](CCC(=O)O)NC(=O)c1ccc(-c2cccc(O)c2)cc1 [Example 17UU, N-[2-(4-fluorophenyl)-1,1-dimethylethyl]-N^2-[(3′-hydroxybiphenyl-4-yl)carbonyl]-L-α-glutamine] | 39 | < 30
COc1cc(CNC(=O)[C@H](CCC(=O)O)NC(=O)c2ccc(-c3ccc(O)cc3)cc2)cc(OC)c1OC [Example 17V, N^2-[(4′-hydroxybiphenyl-4-yl)carbonyl]-N-(3,4,5-trimethoxybenzyl)-L-α-glutamine] | 1800 | 90
CN(C)C(=O)c1cccc(-c2ccc(C(=O)N[C@@H](CCC(=O)O)C(=O)NCC34CC5CC(CC(C5)C3)C4)cc2)c1 [Example 17W, N-(1-adamantylmethyl)-N^2-({3′-[(dimethylamino)carbonyl]biphenyl-4-yl}carbonyl)-L-α-glutamine] | ~67000 | > 25000
Cc1cc(C)cc(-c2ccc(C(=O)N[C@@H](CCC(=O)O)C(=O)NCC34CC5CC(CC(C5)C3)C4)cc2)c1 [Example 17X, N-(1-adamantylmethyl)-N^2-[(3′,5′-dimethylbiphenyl-4-yl)carbonyl]-L-α-glutamine] | ~22000 | 2000
Cc1cccc(-c2ccc(C(=O)N[C@@H](CCC(=O)O)C(=O)NC(C)(C)Cc3ccc(F)cc3)cc2)c1 [Example 17Y, N-[2-(4-fluorophenyl)-1,1-dimethylethyl]-N^2-[(3′-methylbiphenyl-4-yl)carbonyl]-L-α-glutamine] | 156 | < 30
COc1cc(CNC(=O)[C@H](CCC(=O)O)NC(=O)c2ccc(-c3cccc(C(C)C)c3)cc2)cc(OC)c1OC [Example 17Z, N^2-[(3′-isopropylbiphenyl-4-yl)carbonyl]-N-(3,4,5-trimethoxybenzyl)-L-α-glutamine] | 3140 | 170
COc1cc(CNC(=O)[C@H](CCC(=O)O)NC(=O)c2ccc(Br)cc2)cc(OC)c1OC [Example 18D, N^2-(4-bromobenzoyl)-N-(3,4,5-trimethoxybenzyl)-L-α-glutamine] | > 22000 | 4400
CC(C)(Cc1ccccc1)NC(=O)[C@H](CCC(=O)O)NC(=O)c1ccc(Br)cc1 [Example 18E, N^2-(4-bromobenzoyl)-N-(1,1-dimethyl-2-phenylethyl)-L-α-glutamine] | > 11000 | 2200
O=C(O)CC[C@H](NC(=O)c1ccc(Br)cc1)C(=O)NCC12CC3CC(CC(C3)C1)C2 [Example 18F, N-(1-adamantylmethyl)-N^2-(4-bromobenzoyl)-L-α-glutamine] | > 67000 | > 67000
